Experimental findings from patent publication US20240342119A1, “COMPOSITION FOR TREATING HY[…] AND KELOIDS […] THI[…] AS ACTIVE INGREDIENT” (CEL[…]., priority 2021, published 2024) are described below.

The assay has as its system hypertrophic scars in rabbit ears. The assay can be described thus: rabbit ear hypertrophic scar model. The class given is in vivo, New Zealand white rabbits. Particulars: 10% compound; for epidermal thickness of hypertrophic scar / scar elevation index (SEI) / collagen density (ratio of blue-stained area to total area): 0.5 mL applied daily for 14 days, compared to control and solvent-treated group; for epidermal thickness of hypertrophic scar: H&E, FIG. 9; for scar elevation index (SEI): FIG. 10; for collagen density (ratio of blue-stained area to total area): FIG. 11; for visual evaluation score of hypertrophic scar (dermatoscope, score 0-3 of Table 1): 0.5 mL applied daily, day 14, compared to control and solvent-treated group, FIG. 8. From the text:
Eight female New Zealand white rabbits (2.6 to 3 kg) were anesthetized, and wounds were formed by removing the epidermis, dermis, and perichondrium of the ear skin of the rabbits using an 8 mm biopsy punch. Three wounds were formed in an ear area of each rabbit. The rabbit's surgical site was sterilized, and the formation of hypertrophic scars was induced through natural healing for 3 weeks.
After 3-week natural healing, the complete epithelialization and hypertrophic scar formation in scar areas were confirmed, and treatment was started for each test group. The test groups were classified into a normal group (normal tissue), a control (untreated scar/hypertrophic scar), test group 1 (solve application), test group 2 (CBM-N1 10%), test group 3 (CBM-N3 10%), test group 4 (CBM-N 10%), and test group 5 (CBM-N 10%).
Each test group was treated by applying 0.5 mL of drug daily for 2 weeks (14 days), and then a tissue autopsy was performed. The biopsied tissue was stored in a 10% formalin solution to form a tissue slide. The effectiveness of hypertrophic scar treatment was confirmed through dermatoscopy and histological evaluation.
The skin tissue areas of the control and test groups were observed using a dermatoscope on the start day and end day (Day 14 of treatment) of treatment, and depending on the degree of hypertrophic scar formation, scores were given for visual evaluation as shown in Table 1 below.
A paraffin block of the fixed ear tissue of a rabbit was prepared, and sliced to a thickness of 3 μm, thereby preparing a tissue slide. Following hydration, staining was performed using hematoxylin and eosin solutions. The stained tissue slides were photographed using a 200× microscope, and epithelial thicknesses were measured using ZEISS ZEN Microscope Software.
The fixed ear tissue of a rabbit was stained with a hematoxylin or eosin solution in the same manner as in the epidermal thickness analysis method, and the stained tissue slide was photographed at 50× magnification. Using ZEISS ZEN Microscope Software, the length from the epidermis to the cartilage was measured for the scar area and normal area, and the scar evaluation index (SEI) was calculated from the results. Here, the SEI is the value calculated by dividing ‘the length from the epidermis to the cartilage at the thickest point in the scar area’ by ‘the length from the epidermis to the cartilage in the normal skin area.’
A paraffin block of the fixed ear tissue of a rabbit was prepared, and sliced to a thickness of 3 μm, thereby preparing a tissue slide. Following hydration, staining was performed using Biebrich Scarlet-Acid Fuchsin solution for 5 minutes, and washing was performed and then staining was performed again with phosphotungstic acid/phosphomolybdic acid for 5 minutes.
Subsequently, staining was performed with aniline blue and an acetic acid solution, and the stained tissue slides were photographed at 400× magnification. In the photographs that were taken, the ratio of the blue-stained area, that is, the area occupied by collagen, to the total area was analyzed using Image J (The National Institutes of Health, USA).

For the compound `O=C(C[S+]([O-])C(c1ccccc1)c1ccccc1)NCC1CCCO1` (stereo not shown) [CBM-N5, 2-(benzhydrylsulfinyl)-N-[(tetrahydrofuran-2-yl)methyl]acetamide], the “epidermal thickness of hypertrophic scar” value is “thin epidermal thicknesses”; the “scar elevation index (SEI)” value is given as “lower SEI values”; the “collagen density (ratio of blue-stained area to total area)” value is “lower collagen densities”; the “visual evaluation score of hypertrophic scar (dermatoscope, score 0-3 of Table 1)” value (shortened to “visual evaluation score”) is “much lower”.
Regarding `NC(=O)C[S+]([O-])C(c1ccc(F)cc1)c1ccc(F)cc1` (stereo not shown) [CBM-N9, 2-[bis(4-fluorophenyl)methanesulfinyl]acetamide], the “epidermal thickness of hypertrophic scar” value was “thin epidermal thicknesses”; the “scar elevation index (SEI)” value is “lower SEI values”; the “collagen density (ratio of blue-stained area to total area)” value is recorded as “lower collagen densities”; the “visual evaluation score” value is on record as “much lower”.
With `O=C(CSC(c1ccccc1)c1ccccc1)Nc1ccccc1` [CBM-N3, 2-(benzhydrylthio)-N-phenylacetamide], the “epidermal thickness of hypertrophic scar” value was “thin epidermal thicknesses”; the “scar elevation index (SEI)” value is reported as “lower SEI values”; the “collagen density (ratio of blue-stained area to total area)” value is “lower collagen densities”; the “visual evaluation score” value is “much lower”.
The like results for `NC(=O)C[S+]([O-])C(c1ccccc1)c1ccccc1` (stereo not shown) [CBM-N1, 2-(benzhydrylsulfinyl)acetamide, reference compound] were, in that order, “thin epidermal thicknesses”, “lower SEI values”, “lower collagen densities” and “much lower”.
